Source: patent publication US20050288347A1, “Certain triazole-based compounds, compositions, and uses thereof” (priority 2004, published 2005)
“Also recorded” adds a separate entry of the source.

The compounds below were run against protein kinase (assay: HTS ATP-utilizing enzyme assay, off-chip mobility-shift format (Caliper HTS 250)). Details: kinase(s) for which the compound exhibits protein kinase inhibitory activity; test compound 10 μM; active = greater than three-sigma from the mean activity of inactive compounds.
Type: biochemical, human
Outline: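 Kinase reactions ran 2.5 h at 20 to 22 °C with test compound at 10 μM, in a HEPES pH 7.5 master buffer containing Triton X-100 and BSA. Peptide substrate and phosphorylated product separated by mobility shift; inhibition normalized to DMSO (0%) and EDTA (100%) controls, with three-sigma thresholds for hits.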

SMILES	Kinase
O=C(CSc1nncn1-c1cccnc1)Nc1ccccc1[N+](=O)[O-] [N-(2-nitrophenyl)-2-(4-(pyridin-3-yl)-4H-1,2,4-triazol-3-ylthio)acetamide]	FYN
Cc1nnc(SCC(=O)Nc2cccc(Cl)c2)n1C [N-(3-chlorophenyl)-2-(4,5-dimethyl-4H-1,2,4-triazol-3-ylthio)acetamide]	DAPK1
Cn1c(S)nnc1-c1ccc(NC(=O)c2ccccc2)cc1 [N-(4-(5-mercapto-4-methyl-4H-1,2,4-triazol-3-yl)phenyl)benzamide]	GSK3-α; also recorded: CHEK2
O=C(CSc1nnc(Cc2ccccc2)n1Cc1ccccc1)Nc1ccccc1-c1ccccc1 [N-(biphenyl-2-yl)-2-(4,5-dibenzyl-4H-1,2,4-triazol-3-ylthio)acetamide]	CDK2-cyclinE
C=CCNC(=O)CSc1nnc(-c2ccccc2O)n1-c1ccc(C)cc1 [N-allyl-2-(5-(2-hydroxyphenyl)-4-p-tolyl-4H-1,2,4-triazol-3-ylthio)acetamide]	AURORA-A
Cc1cccc(-c2nnc(SCC(=O)NCc3ccccc3)n2C)c1 [N-benzyl-2-(4-methyl-5-m-tolyl-4H-1,2,4-triazol-3-ylthio)acetamide]	MAPKAPK-2 and FYN
COc1ccc(-c2nnc(SCC(=O)OCc3ccccc3)n2-c2ccc(OC)cc2)cc1 [benzyl 2-(4,5-bis(4-methoxyphenyl)-4H-1,2,4-triazol-3-ylthio)acetate]	AKT1
CC(C)Cn1c(SCC(=O)OCc2ccccc2)nnc1-c1ccccc1O [benzyl 2-(5-(2-hydroxyphenyl)-4-isobutyl-4H-1,2,4-triazol-3-ylthio)acetate]	CDK2-cyclinE
O=C(CSc1nnc(CC2CCCCC2)n1-c1ccccc1)OCc1ccccc1 [benzyl 2-(5-(cyclohexylmethyl)-4-phenyl-4H-1,2,4-triazol-3-ylthio)acetate]	PDK1 and HCK
Cn1c(SCC(=O)OC2CCCCC2)nnc1-c1ccc([N+](=O)[O-])cc1 [cyclohexyl 2-(4-methyl-5-(4-nitrophenyl)-4H-1,2,4-triazol-3-ylthio)acetate]	PDGFRR-α and FYN and FLT-3
CCOC(=O)CSc1nnc(-c2ccccc2OC)n1C [ethyl 2-(5-(2-methoxyphenyl)-4-methyl-4H-1,2,4-triazol-3-ylthio)acetate]	AURORA-A and FYN
CCOC(=O)CSc1nnc(-c2ccc(OC)c(OC)c2)n1-c1ccccc1 [ethyl 2-(5-(3,4-dimethoxyphenyl)-4-phenyl-4H-1,2,4-triazol-3-ylthio)acetate]	MAPKAPK-2; also recorded: CDK2-cyclinE
CCOC(=O)CSc1nnc(-c2ccco2)n1-c1ccc(C)cc1 [ethyl 2-(5-(furan-2-yl)-4-p-tolyl-4H-1,2,4-triazol-3-ylthio)acetate]	PAK2
CCOC(=O)CSc1nnc(-c2ccncc2)[nH]1 [ethyl 2-(5-(pyridin-4-yl)-4H-1,2,4-triazol-3-ylthio)acetate]	CDK2-cyclinA and AURORA-A and CDK5
CCn1c(SCC(=O)OC)nnc1-c1ccc(O)cc1 [methyl 2-(4-ethyl-5-(4-hydroxyphenyl)-4H-1,2,4-triazol-3-ylthio)acetate]	GSK3-β; also recorded: GSK3-α; also recorded: CHEK1
CCn1c(SCC(=O)OC)nnc1-c1ccc([N+](=O)[O-])cc1 [methyl 2-(4-ethyl-5-(4-nitrophenyl)-4H-1,2,4-triazol-3-ylthio)acetate]	PDGFRR-α and FYN
CCn1c(SCC(=O)OC)nnc1-c1ccccc1 [methyl 2-(4-ethyl-5-phenyl-4H-1,2,4-triazol-3-ylthio)acetate]	MAPKAPK-2
COC(=O)CSc1nnc(-c2ccncc2)[nH]1 [methyl 2-(5-(pyridin-4-yl)-4H-1,2,4-triazol-3-ylthio)acetate]	AURORA-A; also recorded: DYRK2; also recorded: GSK3-β

Same assay, conditions: test compound 10 μM; active = activity greater than three-sigma from the mean of the predominately inactive population for that enzyme

SMILES	protein kinase against which the compound exhibits inhibitory activity (Table 3)
C(=C\c1ccccc1)/CSc1nnc(-c2ccncc2)n1-c1ccccc1 [(E)-4-(5-(cinnamylthio)-4-phenyl-4H-1,2,4-triazol-3-yl)pyridine]	GSK3-β and GSK3-α and MSK1
CN(C)CCCSc1nnc(-c2ccc([N+](=O)[O-])cc2)[nH]1 [N,N-dimethyl-3-(5-(4-nitrophenyl)-4H-1,2,4-triazol-3-ylthio)propan-1-amine]	c-TAK1
CN(C)CCCSc1nnc(-c2cccs2)[nH]1 [N,N-dimethyl-3-(5-(thiophen-2-yl)-4H-1,2,4-triazol-3-ylthio)propan-1-amine]	c-TAK1; also recorded: AURORA-A; also recorded: GSK3-α
O=C(NCCSc1nnc(-c2cccs2)[nH]1)c1ccccc1 [N-(2-(5-(thiophen-2-yl)-4H-1,2,4-triazol-3-ylthio)ethyl)benzamide]	DYRK2; also recorded: GSK3-α; also recorded: GSK3-β
O=C(NCCSc1nnc(-c2ccccc2)[nH]1)c1ccccc1 [N-(2-(5-phenyl-4H-1,2,4-triazol-3-ylthio)ethyl)benzamide]	GSK3-β; also recorded: DYRK2; also recorded: AURORA-A
COc1ccccc1-n1c(SCCCC(=O)OCc2ccccc2)nnc1-c1ccccc1 [benzyl 4-(4-(2-methoxyphenyl)-5-phenyl-4H-1,2,4-triazol-3-ylthio)butanoate]	AURORA-A
CCOC(=O)CCSc1nnc(-c2cccc(C(F)(F)F)c2)[nH]1 [ethyl 3-(5-(3-(trifluoromethyl)phenyl)-4H-1,2,4-triazol-3-ylthio)propanoate]	AURORA-A; also recorded: FLT-3; also recorded: GSK3-β
CCOC(=O)CCSc1nnc(-c2cccnc2)[nH]1 [ethyl 3-(5-(pyridin-3-yl)-4H-1,2,4-triazol-3-ylthio)propanoate]	AURORA-A; also recorded: DYRK2
CCOC(=O)c1ccc(CSc2nnc(-c3cccc(C)c3)[nH]2)o1 [ethyl 5-((5-m-tolyl-4H-1,2,4-triazol-3-ylthio)methyl)furan-2-carboxylate]	AURORA-A; also recorded: FLT-3; also recorded: CHEK2
CCOC(=O)c1ccc(CSc2nnc(-c3ccccc3)[nH]2)o1 [ethyl 5-((5-phenyl-4H-1,2,4-triazol-3-ylthio)methyl)furan-2-carboxylate]	AURORA-A; also recorded: FLT-3; also recorded: GSK3-β
CCC(c1ccccc1)c1nnc(SCc2ccc(C(=O)OC)cc2)[nH]1 (centres unmarked) [methyl 4-((5-(1-phenylpropyl)-4H-1,2,4-triazol-3-ylthio)methyl)benzoate]	FLT-3
COC(=O)c1ccc(CSc2nnc(-c3cccs3)[nH]2)cc1 [methyl 4-((5-(thiophen-2-yl)-4H-1,2,4-triazol-3-ylthio)methyl)benzoate]	AURORA-A; also recorded: FLT-3; also recorded: c-TAK1
COC(=O)c1ccc(CSc2nnc(-c3cccc(C)c3)[nH]2)cc1 [methyl 4-((5-m-tolyl-4H-1,2,4-triazol-3-ylthio)methyl)benzoate]	AURORA-A; also recorded: FLT-3; also recorded: c-TAK1
COC(=O)c1ccc(CSc2nnc(C)[nH]2)cc1 [methyl 4-((5-methyl-4H-1,2,4-triazol-3-ylthio)methyl)benzoate]	DYRK2; also recorded: AURORA-A
